# Results from patent US20250250582A1, “Plant Cells and Plants Modified to Increase Herbicide Resistance and Stress Tolerance and Methods of Using the Same” (The Board of Trustees of the University of Arkansas, priority 2018, published 2025).
# Where “and” joins values, the source holds several entries; their conditions need not be identical. Equal entries are not always repeated.
# Legend:
# [1] = test system: multiple-resistant E. colona (ECO-R); assay: Herbicide resistance profile of ECO-R; format: in vivo, Echinochloa colona; conditions: data not shown
# Text: Beginning in 2010, through the 2016 cropping cycle, Echinochloa spp. from throughout the rice producing counties of Arkansas, USA, located along the Mississippi River were sampled for a survey of the current status of herbicide resistance. Seeds were bulk sampled from plants that had matured in rice and soybean production fields, which had survived at least one herbicide application, were collected and sent to the University of Arkansas Altheimer Laboratory in Fayetteville for characterization and evaluation of herbicide resistance to common rice herbicides. […] From this screening program, two populations of E. colona were selected for use in this experiment. […] To establish inbred and homozygous accessions for the experiment, a single plant, verified as resistant/susceptible of ECO-R and ECO-S were grown in isolation to produce seed for further experiments.
# Accession source and population profiling. From 2010 to 2016, the University of Arkansas weed physiology group has been collecting putative herbicide-resistant Echinochloa populations from rice production fields throughout the state of Arkansas. […] Collections took place in the late summer to early fall prior to rice harvest; these accessions were bulk sampled by in-field location and farm, with field histories collected when possible. All of the samples were submitted to the University of Arkansas Altheimer Laboratory for assessment of their resistance profile and characterized according to their species. […] Populations with unique profiles and of interest for further research were then grown in isolation to produce pureline seed. […] Another accession, E. colona susceptible (ECO-S), was also selected and grown in isolation. This accession was selected because of its similar cropping history and geographic location, as well as its high level of susceptibility to the herbicides of interest.
# [2] = test system: multiple-resistant E. colona (ECO-R); assay: RNA-sequencing differential gene expression, herbicide-treated vs nontreated ECO-R; conditions: ECO-R-T vs ECO-R-N, 24 h
# Text: (§1) Pure-line generated seed of each accession were germinated in pots containing potting soil within a temperature/light controlled growth chamber set to a 14-hr day length, 33 C day temperature, and 24 C night time to simulate environmental conditions early in the rice growing season. A single plant was maintained in each of the pots and used for the treatments; two pots were used as individual biological replicates. […] Pots for each of the respective treatments were labeled as either ECO-R/S-T for the treated samples and ECO-R/S-N for the non-treated counterpart. To minimize the effect that the sprayer may play in the application, both plants of the ECO-R and ECO-S were treated at the same time. After approximately 30 minutes, allowing for the plants to dry, the treated and non-treated plants of both accessions were moved back into the growth chamber. Precisely 24-hours after application, the aboveground portion of each of the plants were removed and immediately frozen in liquid nitrogen to cease all biological function. Samples were then transferred to RNAlater™-ICE (Invitrogen, Carlsbad CA, USA) for shipment to the Clemson University Genomics Institute (CUGI), in Clemson, South Carolina.
# (§2) RNA was extracted from the young leaf tissues of both replications for the ECO-R and ECO-S, T and N samples, at Clemson University. Total RNA was extracted with a kit according to the manufactures instructions. The extracted RNA was treated with DNase (Invitrogen, Calsbad, CA, USA) to remove any DNA contamination prior to further processing. The samples were prepared for sequencing by CUGI. For library preparation, the TruSeq Stranded Total RNA kit (Illumina Inc., San Diego, CA, USA) was used according to the instructions provided by the manufacturer to produce a paired-end library for sequencing. Ribosomal RNA was removed using target-specific oligonucleotides paired with rRNA removal beads, removing all cytoplasmic and mitochondrial rRNA that may result in poor quality results. RNA was fragmented and reverse transcribed to cDNA using random primers, followed by a second strand cDNA synthesis. Each fragment is then ligated with an additional ‘A’ and an adapter for sequencing. The PCR enriched product is then used to create the final cDNA library. All samples were sequenced on an Illumina Hiseq 2500 platform housed in the Holdings Cancer Center at the Medical University of South Carolina, Charleston, SC, USA. Samples, regardless of treatments or replication were ran across three lanes to reduce sequencing errors from the equipment. The resulting data were processed by CUGI.
# (§3) A de novo transcriptome was assembled from the treatments described for this experiment as well as several treatments, which included herbicides profiled in ECO-R. The treatments were applied to both ECO-R and ECO-S samples with two replications as described previously. In total, 20 individual plants, from both the ECO-R and ECO-S accessions, as well as T and NT samples, were used for the assembly. The transcriptome was assembled using the Trinity RNA-Seq pipeline (Broad Institute, Cambridge, MA, USA). Raw data were assessed for quality using FastQC (Babraham Institute, Cambridge, UK) and then processed to remove adapter sequences and low quality bases using a sliding window method. The processed data were then rerun using FastQC to ensure high quality reads. Using the TrinityRNASeq 2.2.0 software, the samples were normalized, by replication, using a coverage size of 100 and kmer of 32. The normalized reads were then assembled as transcripts and genes using Trinity with the stranded library set as the default.
# [3] = test system: susceptible E. colona standard; assay: Determination of resistance level (visual injury), susceptible plants; conditions: 2 X dose, visual 3 wk after treatment
# [4] = test system: ECO-R compared to ECO-S after herbicide treatment; assay: RNA-sequencing differential gene expression, ECO-R-T compared to ECO-S-T; conditions: ECO-R-T vs ECO-S-T, 24 h
# Text: as §1, §2, §3
# [5] = test system: resistant Echinochloa species; assay: Determination of resistance level (visual injury), resistant accessions; format: in vivo, E. colona and E. crus-galli; conditions: 2 X dose, visual 3 wk after treatment; propanil range excludes ECO187
# Text: The experiment was repeated once.
# [6] = test system: susceptible E. colona (ECO-S); assay: RNA-sequencing differential gene expression, herbicide-treated vs nontreated ECO-S; conditions: ECO-S-T vs ECO-S-N, 24 h
# Text: as §1, §2, §3
compound,measurement,setting,value
C[C@@H](Oc1ccc(Oc2ccc(C#N)cc2F)cc1)C(=O)O [cyhalofop],level of resistance,[1],~2 × field dose
CP(=O)(O)CCC(N)C(=O)O (stereo not shown) [glufosinate],level of resistance,[1],~2 × field dose
same,glutamine synthetase (one form) fold change,[2]; induced,7.5 fold
same,glutamine synthetase cytosolic isozyme 1-3 fold change,[2]; induced,8.2 fold
O=C(O)c1c(Cl)ccc2cc(Cl)cnc12 [quinclorac],level of resistance,[1],> 32 × field dose
same,ABCD2 fold change,[2],−9.2 fold
same,ACC synthase fold change,[2],6.3 fold
same,UGT73D1 fold change,[2],5.3 fold
same,UGT73E1 fold change,[2],2.6 fold
same,UGT75D1 fold change,[2],7.3 fold and ~9 fold
same,cytochrome c oxidase proteins fold change,[2],−8.4 fold
same,ATP synthase subunit(s) fold change,[2]; repressed,up to −12.3 fold
same,acetyl-CoA and acetyl-CoA 2 proteins fold change,[2]; repressed up to,up to −10.2 fold
same,pyruvate dehydrogenase subunits fold change,[2]; repressed up to,≤ −12 fold
same,susceptible plants killed,[3],100%
same,ABA receptor PYL5 fold change,[4],−4.4 fold
same,ACC synthase fold change,[4],9 fold
same,Alanine aminotransferase 2 Fold Change,[4],4 fold
same,"Aspartate aminotransferase, chloroplastic Fold Change",[4],4 fold
same,"Beta-amylase 1, chloroplastic Fold Change",[4],4 fold
same,"Branched-chain-amino-acid aminotransferase 5, chloroplastic Fold Change",[4],4 fold
same,CYP71A1 Fold Change,[4],3 fold and 5 fold and 6 fold
same,CYP71A4 Fold Change,[4],5.6 fold and 6 fold
same,CYP71A8 Fold Change,[4],4 fold
same,CYP71A9 Fold Change,[4],−6 fold
same,CYP72A15 Fold Change,[4],−7 fold
same,CYP89A2 Fold Change,[4],−10 fold
same,CYP709B2 Fold Change,[4],6 fold and 7 fold and 11 fold
same,Desumoylating isopeptidase 1 Fold Change,[4],4 fold
same,"Fructose-bisphosphate aldolase, chloroplastic Fold Change",[4],4 fold
same,GSTU20 Fold Change,[4],6 fold
same,Haloacid dehalogenase-like hydrolase domain-containing protein 3 Fold Change,[4],4 fold
same,IAA-amino acid hydrolase ILR1-like 4 Fold Change,[4],−6 fold
same,"Nudix hydrolase 21, chloroplastic Fold Change",[4],3 fold and 4 fold
same,Probable xyloglucan endotransglucosylase/hydrolase protein 28 Fold Change,[4],−4 fold
same,Prolyl endopeptidase Fold Change,[4],8 fold and 9 fold and 15 fold
same,Pyrimidine-specific ribonucleoside hydrolase RihA Fold Change,[4],−9 fold
same,Serine carboxypeptidase-like 42 Fold Change,[4],−5 fold
same,UGT73D1 fold change,[4],8 fold
same,UGT73E1 fold change,[4],5 fold
same,UGT74D1 Fold Change,[4],−4 fold
same,UGT75D1 fold change,[4],8.7 fold and 9 fold
same,UGT88A1 Fold Change,[4],4 fold
same,injury of resistant Echinochloa species,[5],2-65%
same,ABCB5 fold change,[6],−6.5 fold
same,ABCC10 fold change,[6],−6.1 fold
same,ACC oxidase 1 fold change (two forms),[6],2.2 fold and 2.8 fold
same,ACC oxidase fold change,[6],−2.8 fold
same,ACC oxidase homolog 3 fold change,[6],−2.2 fold
same,ACC synthase fold change,[6],−2.7 fold
same,"ALPL1 fold change, five repressed transcripts",[6],−12 to −1.4 fold
same,EIN2 fold change,[6],3.9 fold
same,RAP2-2 fold change,[6],1.9 fold
same,VP14 (9-cis-epoxycarotenoid dioxygenase) fold change,[6],−6.4 fold
same,"ALPL1 fold change, three induced transcripts",[6]; as much as,≤ 3.5 fold
